According to paper PMC5640902, “Monitoring multiple myeloma by idiotype-specific peptide binders of tumor-derived exosomes” (Molecular Cancer, 2017):
Positions of bridges follow the written chain, without caps; N, C: chain ends. No end group written: not given here.

Assays:
mIg-5T33MM = test: ELISA binding of biotin-conjugated Id-peptides to 5T33MM Ig (Scatchard plot analysis); parameters: species or system murine; settings: biotinylated-p5 peptide at different concentrations; Fig. 2a
Description: (§1) Single strand DNA (ssDNA) was extracted from the selected phage clones by phenol/chlorophorm purification followed by ethanol precipitation. DNA fragment codifying the peptide ligand was amplified by PCR and sequenced to get the primary structure of amino acid sequence for the peptide synthesis. Synthesized peptides were purchased from Caslo Laboratory ApS [Caslo, Kongens Lyngby, DE]. The specific binding of peptides to the 5T33MM sIgG was analyzed by ELISA, as follows. Streptavidin coated 96 well plates were washed extensively and supplemented with biotin-conjugated peptides by 1 h-incubation at 37 °C; then, after washing and blocking with blocking solution (1X PBS, 0.05% Tween-20, 5% milk), aliquots of 5T33MM sIgG (1 μg/ml in blocking buffer) were added overnight at 4 °C. Wells were extensively washed and coated with the anti-mouse IgG (Fc-specific) alkaline phosphatase-conjugated [Sigma Aldrich] for 1 h at 37 °C, incubated with the alkaline phosphatase substrate [Sigma Aldrich], and analyzed by an ELISA reader at 405 nm [Labsystems multiscan MS].
(§2) The random peptide insert was flanked by a pair of cysteines resulting in cyclized peptide exposed on M13 coat protein. After three rounds of affinity selection, single phage clones were purified and tested by enzyme-linked immunosorbent assay (ELISA) for binding to the 5T33MM Igs or control Igs, as previously described. […]

A20 secreted IgG = test: ELISA binding of biotinylated peptide to control A20 secreted IgG; parameters: species or system murine; settings: biotinylated-p5 peptide; control Ig; Fig. 2a
Description: as §1, §2

polyclonal mouse Igs = test: ELISA binding of biotinylated peptide to control polyclonal mouse Igs; settings: biotinylated-p5 peptide, Fig. 2a
Description: as §1, §2

5T33MM cells [1] = test: In vitro cell binding of FITC-conjugated peptides by flow cytometry; assay type: cell-based, murine; settings: 10 min on ice, Fig. 2b
Description: (§3) Cultured 5T33MM, A20 and IM9 cells as well as primary B cells from MM patient and healthy donor were washed and suspended at the density of 10^6 cells/ml in FACs Flow Buffer [BD Biosciences]. All subsequent washing and incubations were carried out in the same buffer on ice. Cells were incubated with 20 μg/ml of FITC-conjugated peptides for 10 min on ice, then washed twice, and analyzed by flow cytometry [FACSCalibur, BD Biosciences]. For peptide co-localization with the BCR complex, 5T33MM cells (10^6 cells/ml) were stained with FITC-conjugated peptides [10 μg/ml) and goat anti-mouse IgG-Alexa fluor 568 [Thermo Fisher]. After extensive washing, cells were mounted under cover slip, and visualized by confocal microscopy [Leica TC-SP2].

5T33MM cells [2] = test: Confocal microscopy of FITC-conjugated peptide co-localization with the BCR complex; assay type: cell-based, murine; settings: FITC-conjugated p5 peptide, non-permeabilized cells, anti-mouse IgG co-staining; Fig. 2c
Description: as §3

5T33MM-derived exosomes = test: Exosome immunocapture (anti-CD63 SMNPs) and flow cytometry, 5T33MM-derived exosomes; assay type: binding, murine; settings: exosomes from cell supernatant trapped on anti-CD63 SMNPs; FITC-conjugated reagent; Fig. 4
Description: (§4) Exosomes were isolated from 250 μL of blood and 10 mL of cell supernatant respectively using ExoQuick solutions [System Biosciences – SBI, Palo Alto, California, US] and ExoQuick-TC™ [System Biosciences], according to the manufacturer’s protocol. Briefly, serum and cell supernatants were centrifuged at 3000×g for 15 min to remove cells and cell debris. The supernatant was transferred to a sterile vessel and the recommended volume of ExoQuick solution or ExoQuick-TC™ were added to the bio-fluids. After brief vortex, samples were stored 30 min at 4 °C and then centrifuged at 1500 x g for 30 min at room temperature. After removing the supernatant, the pellet was suspended in nuclease-free water.
(§5) Isolated exosomes from serum or cell supernatants were suspended in 1 ml of 1X PBS. Exosome aliquots (500 μl) were labeled with 50 μl of 10X Exo-Red [SBI] according to manufacturer’s instructions. The exosomes were re-isolated using the addition of 100 μl ExoQuick followed by precipitation for 30 min at +4 °C. The labeled exosome pellet was suspended in 500 μl 1X PBS and stained with CD63-coupled magnetic beads provided by SBI’s Exo-Flow IP kit [SBI] and with the FITC-conjugated peptides.

IM9-derived exosomes = test: Exosome immunocapture (anti-CD63 SMNPs) and flow cytometry, IM9-derived exosomes; assay type: binding, human; settings: exosomes trapped on anti-CD63 SMNPs; FITC-conjugated p5 peptide; Fig. 4
Description: as §4, §5

A20-derived exosomes = test: Exosome immunocapture (anti-CD63 SMNPs) and flow cytometry, A20-derived exosomes; assay type: binding, murine; settings: exosomes trapped on anti-CD63 SMNPs; FITC-conjugated p5 peptide; Fig. 4
Description: as §4, §5

reactivity against A20 secreted IgG by ELISA (A20 secreted IgG) | reactivity against polyclonal mouse Igs by ELISA (polyclonal mouse Igs) | Sequence | reactivity to the cognate antibody (5T33MM-Igs) by ELISA (mIg-5T33MM) | recognition of 5T33MM target cells by flow cytometry (5T33MM cells [1]) | localization on 5T33MM cells by confocal microscopy (5T33MM cells [2]) | detection of 5T33MM-derived exosomes by flow cytometry (5T33MM-derived exosomes) | detection of exosomes released from human IM9 multiple myeloma cells (IM9-derived exosomes) | detection of exosomes released from murine A20 B-lymphoma cells (A20-derived exosomes)
did not react | did not react | CIGNSNTLC (disulfide 1-9 (inferred)) [p5, used biotinylated or FITC-conjugated] | concentration-dependent specific reactivity | recognized 5T33MM target cells in a dose-dependent manner | bound to the 5T33MM cell surface and also localized inside the cells | equally detected | did not detect | did not detect
 |  | CGGNGPGLC [pCNT, irrelevant peptide (…) included as a negative control, FITC-conjugated, reference compound] |  | did not |  | undetected |  | 
